One experiment addresses T1, H3 receptors of the brain of the rat (Rattus norvegicus, UniProt Q9QYN8).
T1 construct: This method requires rat cerebral cortex sections; from tissue; host or cells: rat cerebral cortex sections
The experiment can be described thus: Antagonism of the inhibition by exogenous histamine of release in rat cerebral cortex sections (central H3 receptors). In kind it is cell-based.
Conditions: not given
An excerpt: This method requires rat cerebral cortex sections and has made possible the pharmacological characterization of the H3 receptors (Nature, 1987, 327, 117-123).
T1 sequence (Q9QYN8 whole entry): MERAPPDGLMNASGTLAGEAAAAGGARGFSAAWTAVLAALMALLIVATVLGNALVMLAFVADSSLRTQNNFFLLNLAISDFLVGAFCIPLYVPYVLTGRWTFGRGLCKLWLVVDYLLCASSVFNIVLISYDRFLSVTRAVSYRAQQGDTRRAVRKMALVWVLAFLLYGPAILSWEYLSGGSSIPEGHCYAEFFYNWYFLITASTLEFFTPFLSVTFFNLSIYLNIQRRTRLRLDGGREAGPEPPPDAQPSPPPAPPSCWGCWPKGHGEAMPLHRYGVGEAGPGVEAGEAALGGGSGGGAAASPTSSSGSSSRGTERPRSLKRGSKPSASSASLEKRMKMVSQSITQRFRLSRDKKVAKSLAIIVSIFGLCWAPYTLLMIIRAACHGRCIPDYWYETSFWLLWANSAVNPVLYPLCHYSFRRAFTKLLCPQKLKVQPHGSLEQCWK
On to `CC(CC(=O)NCCCc1c[nH]cn1)c1ccccc1` (racemic) [Example 15, (R,S)-(+)-N-(3-(1H-Imidazol-4-yl)propyl)-3-phenylbutanamide], for which the Ki was 35 nM.

On to `O=C(CCc1ccccc1)NCCCc1c[nH]cn1` [Example 2, N-(3-(1H-Imidazol-4-yl)propyl)-3-phenylpropanamide], for which the Ki worked out at 49 nM.

As to `O=C(CCCC1CCCCC1)NCCCc1c[nH]cn1` [Example 7, N-(3-(1H-Imidazol-4-yl)propyl)-4-cyclohexylbutanamide], the Ki is 59 nM.

`O=C(CCC1CCCC1)NC/C=C/c1c[nH]cn1` [Example 19, (E)-N-(3-(1H-Imidazol-4-yl)allyl)-3-cyclopentylpropanamide] showed a Ki of 42 nM.

In turn, `S=C(CCC1CCCC1)NCCCc1c[nH]cn1` [Example 22, N-(3-(1H-Imidazol-4-yl)propyl)-3-cyclopentylpropanethioamide] gave a Ki of 11 nM.

In turn, `O=C(CCC1CCCC1)OCCCc1c[nH]cn1` [Example 24, 3-(1H-Imidazol-4-yl)propyl ester of 3-cyclopentylpropanoic acid] returned a Ki of 3 nM.

`Brc1ccc(CCCOCCCc2c[nH]cn2)cc1` [Example 38, 3-(4-Bromophenyl)propyl 3-(1H-imidazol-4-yl)propyl ether] yielded a Ki of 15 ± 4 nM.

The compound `c1ccc(CCCOCCCc2c[nH]cn2)cc1` [Example 45, 3-Phenylpropyl 3-(1H-imidazol-4-yl)propyl ether] showed a Ki of 17 ± 3 nM.

`O=C(CCCc1ccccc1)CCCc1c[nH]cn1` [Example 49, 1-(1H-Imidazol-4-yl)-7-phenylheptan-4-one] yielded a Ki of 20 nM.

As for `N#CN=C(NCCCc1cnc[nH]1)NCC1CCCCC1` [Example 51, N-Cyano-N'-[3-(1H-imidazol-4-yl)propyl]-N"-cyclohexylmethylguanidine], the Ki is 20 nM.

Compound `Clc1ccc(CCCOCCCc2c[nH]cn2)cc1` [Example 85, 3-(4-Chlorophenyl)propyl 3-(1H-imidazol-4-yl)propyl ether] displayed a Ki of 13 ± 4 nM.

`Clc1ccc(COCCCc2c[nH]cn2)cc1` [Example 86, (4-Chlorophenyl)methyl 3-(1H-imidazol-4-yl)propyl ether] came in with a Ki of 18 nM.

`Fc1ccc(CCCOCCCc2c[nH]cn2)cc1` [Example 88, 3-(4-Fluorophenyl)propyl 3-(1H-imidazol-4-yl)propyl ether] showed a Ki of 7 ± 2 nM.

Compound `c1ccc2sc(NCCc3c[nH]cn3)nc2c1` [Example 91, 2-{[2-(1H-Imidazol-4-yl)ethyl]amino}benzothiazole] yielded a Ki of 380 nM.

In turn, `O=[N+]([O-])c1ccc(NCCc2c[nH]cn2)nc1` [Example 94, 2-{[2-(1H-Imidazol-4-yl)ethyl]amino}-5-nitropyridine] displayed a Ki of 38 nM.

Staying with this experiment, now noted: read-out: Apparent dissociation constant (Ki) as antagonist of histamine on the H3 receptors of the brain of the rat; rat cerebral cortex sections; exogenous histamine 1 μM; Ki calculated from IC50 according to Cheng and Prusoff.
For `c1nc(CCCOCCCC2CCCCC2)c[nH]1` [Example 36, 3-Cyclohexylpropyl 3-(1H-imidazol-4-yl)propyl ether], the Ki was 20 ± 8 nM.

As to `O=C(NC(=O)c1ccccc1)OCCCc1c[nH]cn1` [Example 55, 3-(1H-Imidazol-4-yl)propyl N-benzoylcarbamate], the Ki was 95 nM.

Consider `O=C(NCC1CC1)OCCCc1c[nH]cn1` [Example 57, 3-(1H-Imidazol-4-yl)propyl N-(cyclopropylmethyl)carbamate], for which the Ki is 52 nM.

Regarding `O=C(Nc1ccccc1)OCCCc1c[nH]cn1` [Example 61, 3-(1H-Imidazol-4-yl)propyl N-phenylcarbamate], the Ki was 14 ± 8 nM.

In the case of `O=C(NCc1ccc([N+](=O)[O-])cc1)OCCCc1c[nH]cn1` [Example 67, 3-(1H-Imidazol-4-yl)propyl N-(4-nitrobenzyl)carbamate], the Ki is 15 nM.

As for `O=C(Nc1ccc(F)cc1)OCCCc1c[nH]cn1` [Example 73, 3-(1H-Imidazol-4-yl)propyl N-(4-fluorophenyl)carbamate], the Ki is 24 ± 4 nM.

As for `CN(Cc1ccccc1)C(=O)OCCCc1c[nH]cn1` [Example 83, 3-(1H-Imidazol-4-yl)propyl N-benzyl-N-methylcarbamate], the Ki is 42 nM.

Take `O=[N+]([O-])c1ccc(SCCc2c[nH]cn2)nc1` [Example 107, 2-{2-[1H-Imidazol-4-yl]ethylthio}-5-nitropyridine]: the Ki is 4.8 ± 0.9 nM.

Consider `O=[N+]([O-])c1ccc(OCCc2c[nH]cn2)cc1` [Example 110, 4-[2-(4-Nitrophenoxy)ethyl]-1H-imidazole], for which the Ki is 35 ± 6 nM.

Take `N#Cc1ccc(OCCc2c[nH]cn2)cc1` [Example 112, 4-[2-(4-Cyanophenoxy)ethyl]-1H-imidazole]: the Ki is 9 ± 5 nM.

Turning to `CCCc1ccc(OCCc2c[nH]cn2)cc1` [Example 117, 4-[2-(4-Propylphenoxy)ethyl]-1H-imidazole], the Ki is 19 ± 9 nM.

In the case of `c1ccc2cc(OCCc3c[nH]cn3)ccc2c1` [Example 125, 4-[2-(2-Naphthyloxy)ethyl]-1H-imidazole], the Ki is 90 ± 27 nM.

For the compound `N#Cc1ccc(OCCCc2c[nH]cn2)cc1` [Example 130, 4-[3-(4-Cyanophenoxy)propyl]-1H-imidazole], the Ki was 12 ± 3 nM.

Turning to `FC(F)(F)c1ccc(OCCCc2c[nH]cn2)cc1` [Example 131, 4-[3-(4-Trifluoromethylphenoxy)propyl]-1H-imidazole], the Ki was 14 ± 6 nM.

The same experiment, now with this note: read-out: Inhibition of release by exogenous histamine.
Usually inhibition stands for the percentage by which the read-out fell short of the control. With `NCCc1c[nH]cn1` [histamine, reference compound], the inhibition at 1 µM is about 50%.
